Reference: ChEMBL document CHEMBL1201862, “PubChem BioAssay data set” (2004)
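Five concentrations, 48 hours, 96-well plates. GI50 marks 50% less growth.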 Active and inactive are the calls of the source. Rule as the data show it: active = GI50 up to about 1.1 µM and inactive = higher.

What was measured:
Assay in all cases: DTP human tumour cell line panel, 48 h
[1] = system: A549
[2] = system: HCT-15
[3] = system: UACC-257
[4] = system: KM-20L2
[5] = system: HCT-116
[6] = system: 786-0
[7] = system: U-251
[8] = system: KM12
[9] = system: Malme-3M
[10] = system: SW-620
[11] = system: SNB-75
[12] = system: SF-539
[13] = system: XF498
[14] = system: K562
[15] = system: EKVX
[16] = system: SNB-19
[17] = system: NCI-H460
[18] = system: M14
[19] = system: SK-OV-3
[20] = system: DLD-1
[21] = system: DMS-114
[22] = system: UACC-62
[23] = system: HL-60
[24] = system: HOP-18
[25] = system: OVCAR-4
[26] = system: SNB-78
[27] = system: NCI-H226
[28] = system: SF-268
[29] = system: SF-295
[30] = system: SR
[31] = system: OVCAR-5
[32] = system: M19-MEL
[33] = system: SK-MEL-2
[34] = system: HCC 2998
[35] = system: COLO 205
[36] = system: A498
[37] = system: LXFL 529
[38] = system: RPMI-8226
[39] = system: OVCAR-8
[40] = system: IGROV-1
[41] = system: HOP-62
[42] = system: SK-MEL-5
[43] = system: MOLT-4
[44] = system: CCRF-CEM
[45] = system: OVCAR-3
[46] = system: TK-10
[47] = system: NCI-H23
[48] = system: HOP-92
[49] = system: NCI-H522
[50] = system: HT-29
[51] = system: CAKI-1
[52] = system: UO-31
[53] = system: RXF 393
[54] = system: SN12C
[55] = system: ACHN
[56] = system: DMS-273
[57] = system: SK-MEL-28
[58] = system: LOX IMVI

`N#CC1CC2(CCN1C(=O)c1ccccc1)OCCO2` (configuration not stated) was tested, and the GI50 [1] was > 100 µM (inactive), the GI50 [2] was over 100 µM and the GI50 [3] was > 100 µM (inactive). The GI50 [4] was > 100 µM (inactive), the GI50 [5] was > 100 µM (inactive) and the GI50 [6] was > 100 µM (inactive). For the same molecule, the GI50 [7] was > 100 µM (inactive), the GI50 [8] was > 100 µM (inactive) and the GI50 [9] was > 100 µM (inactive). For the same molecule, the GI50 [10] was > 100 µM (inactive), the GI50 [11] was > 100 µM (inactive) and the GI50 [12] was > 100 µM (inactive). The GI50 [13] was > 100 µM (inactive), the GI50 [14] was > 100 µM (inactive) and the GI50 [15] was > 100 µM (inactive). For the same molecule, the GI50 [16] was > 100 µM (inactive), the GI50 [17] was > 100 µM (inactive) and the GI50 [18] was > 100 µM (inactive). The GI50 [19] was > 100 µM (inactive), the GI50 [20] was > 100 µM (inactive) and the GI50 [21] was > 100 µM (inactive). For the same molecule, the GI50 [22] was > 100 µM (inactive), the GI50 [23] was > 100 µM (inactive) and the GI50 [24] was > 100 µM (inactive). For the same molecule, the GI50 [25] was > 100 µM (inactive), the GI50 [26] was > 100 µM (inactive) and the GI50 [27] was > 100 µM (inactive). The GI50 [28] was > 100 µM (inactive), the GI50 [29] was > 100 µM (inactive) and the GI50 [30] was > 100 µM (inactive). For the same molecule, the GI50 [31] was > 100 µM (inactive), the GI50 [32] was > 100 µM (inactive) and the GI50 [33] was > 100 µM (inactive). The GI50 [34] was > 100 µM (inactive), the GI50 [35] was > 100 µM (inactive) and the GI50 [36] was > 100 µM (inactive). For the same molecule, the GI50 [37] was > 100 µM (inactive), the GI50 [38] was > 100 µM (inactive) and the GI50 [39] was > 100 µM (inactive). For the same molecule, the GI50 [40] was > 100 µM (inactive), the GI50 [41] was > 100 µM (inactive) and the GI50 [42] was > 100 µM (inactive). For the same molecule, the GI50 [43] was > 100 µM (inactive), the GI50 [44] was > 100 µM (inactive) and the GI50 [45] was > 100 µM (inactive). The GI50 [46] was > 100 µM (inactive), the GI50 [47] was > 100 µM (inactive) and the GI50 [48] was > 100 µM (inactive). For the same molecule, the GI50 [49] was 0.308 µM (active), the GI50 [50] was > 100 µM (inactive) and the GI50 [51] was > 100 µM (inactive). For the same molecule, the GI50 [52] was > 100 µM (inactive), the GI50 [53] was > 100 µM (inactive) and the GI50 [54] was > 100 µM (inactive). For the same molecule, the GI50 [55] was > 100 µM (inactive) and the GI50 [56] was > 100 µM (inactive).
In the case of `O=C1[C@@H]2C(c3ccc(Cl)cc3Cl)=NO[C@@H]2C(=O)N1c1ccc(Cc2ccc(N3C(=O)[C@H]4C(c5ccc(Cl)cc5Cl)=NO[C@H]4C3=O)cc2)cc1`, the GI50 [1] is reported as > 100 µM (inactive), the GI50 [2] is reported as 46.6 µM and the GI50 [3] is reported as 41.6 µM (inactive). The GI50 [4] was > 100 µM (inactive), the GI50 [6] was 45.9 µM (inactive) and the GI50 [8] was > 100 µM (inactive). The GI50 [9] was 84.3 µM (inactive), the GI50 [10] was 71.8 µM (inactive) and the GI50 [11] was > 100 µM (inactive). The GI50 [12] was 52.7 µM (inactive), the GI50 [13] was > 100 µM (inactive) and the GI50 [14] was 29.3 µM (inactive). For the same molecule, the GI50 [15] was > 100 µM (inactive), the GI50 [18] was 37.7 µM (inactive) and the GI50 [19] was > 100 µM (inactive). For the same molecule, the GI50 [20] was > 100 µM (inactive), the GI50 [21] was 39.5 µM (inactive) and the GI50 [57] was 67.1 µM (inactive). For the same molecule, the GI50 [22] was 71.6 µM (inactive), the GI50 [23] was 11.4 µM (inactive) and the GI50 [24] was > 100 µM (inactive). The GI50 [25] was > 100 µM (inactive), the GI50 [26] was 46.8 µM (inactive) and the GI50 [27] was > 100 µM (inactive). For the same molecule, the GI50 [28] was > 100 µM (inactive), the GI50 [29] was 74 µM (inactive) and the GI50 [31] was > 100 µM (inactive). The GI50 [32] was > 100 µM (inactive), the GI50 [33] was > 100 µM (inactive) and the GI50 [34] was > 100 µM (inactive). For the same molecule, the GI50 [35] was 50.9 µM (inactive), the GI50 [36] was > 100 µM (inactive) and the GI50 [37] was 15.6 µM (inactive). The GI50 [38] was 21.2 µM (inactive), the GI50 [39] was 40.7 µM (inactive) and the GI50 [40] was 70 µM (inactive). The GI50 [41] was > 100 µM (inactive), the GI50 [42] was 52.1 µM (inactive) and the GI50 [43] was 17.3 µM (inactive). The GI50 [44] was 12.9 µM (inactive), the GI50 [45] was 61 µM (inactive) and the GI50 [46] was 51.8 µM (inactive). The GI50 [47] was > 100 µM (inactive), the GI50 [48] was 17.7 µM (inactive) and the GI50 [50] was > 100 µM (inactive). The GI50 [51] was 60.4 µM (inactive), the GI50 [58] was 47.8 µM (inactive) and the GI50 [52] was > 100 µM (inactive). For the same molecule, the GI50 [53] was 13.6 µM (inactive), the GI50 [54] was 54 µM (inactive) and the GI50 [56] was > 100 µM (inactive).
